How the values were obtained:
[1] = test system: Adriamycin (ADR)-resistant human breast cancer cells (MCF-7/ADR); experiment: Cytotoxicity against MCF-7/ADR cells; format: cell-based; settings: 24 h exposure, mean ± standard error
Experimental: (§1) Three human cancer cell lines, PC-3 (human prostate adenocarcinoma, metastatic), […], were used to test the anti-proliferative activity of β-enaminonitrile (4a–p) using the MTT colorimetric assay at concentrations ranging from 0–100 μM. The representative active cytotoxic substances 4a, 4c, 4d, 4e, 4g, 4i, 4k and 4o were also tested against two normal cell lines, human fetal lung (HFL-1) and human diploid fibroblasts (WI-38), as well as Adriamycin (ADR)-resistant human breast cancer cells (MCF-7/ADR). The reference cytotoxic agents, Vinblastine and Doxorubicin, were used in the tests.
(§2) The tumor cell lines MCF-7, HepG-2, PC-3 MCF-7/ADR, HFL-1 and (WI-38) were obtained from the American Type Culture Collection (ATCC, Rockville, MD, USA). The cells were grown on RPMI-1640 medium supplemented with 10% inactivated fetal calf serum and 50 µg/mL gentamycin. The cells were maintained at 37 ^οC in a humidified atmosphere with 5% CO2 and were subcultured two to three times a week.
(§3) The cytotoxic activity was appraised using the 3-(4,5-dimethylthiazol-2-yl)-2,5-diphenyltetrazolium bromide (MTT) colorimetric assay for the antitumor cell lines, as reported previously, and the ELISA assay for MCF-7/ADR [69].

MCF-7/ADR cells = experiment: Cell cycle analysis by flow cytometry (PI staining); format: cell-based, human; settings: IC50 values, 24 h
Excerpt: Cancer cells undergo unscheduled cell divisions by the down-regulation of the four cell cycle stages (G1, S, G2 and M); therefore, the development of anticancer agents targeting cell cycle arrest represents an important therapeutic intervention. P-gp breast cancer resistance proteins (BCRP) inhibit the action of anticancer drugs on cell cycle arrest by preventing intercellular drug accumulation. By using flow cytometry and the FACS Calibers, it was possible to examine how the potent-produced compounds (4a, 4c, 4e, 4g and 4i) affected the regulation of cell cycle progression in MCF-7/ADR cells (Becton Dickinson). […] The outcomes of the cell cycle progression give three different results showing compounds with cell cyclic arrest at the G1 phase (4d and 4e), while there were other compounds at the S phase (4a and 4c) and a final compound with cell cycle arrest at both of the G1/S phases (4g and 4i). […] According to the cell cycle analysis, the tested derivatives considerably stopped the MCF-7/ADR cancer cells in the G1/S phase.
Figure 6 Effects of compounds 4a, 4c–4e, 4g and 4i on the cell cycle phases of MCF-7/ADR cells. […] Their DNA content was analyzed using fluorescence flow cytometry. […] The data are expressed as the mean ± SD of three independent experiments in triplicate. Significances are shown in comparison to control cells (* p < 0.001). TEXT PRINTED IN THE PICTURE: (a) DOX.: %DIP G1 63.03% (MCF7/ADR); %DIP G2/M 13.09% (MCF7/ADR); %DIP S 23.88% (MCF7/ADR) | (a) 4a: %DIP G1 41.63% (MCF7/ADR); %DIP G2/M 5.55% (MCF7/ADR); %DIP S 52.82% (MCF7/ADR) | (a) 4c: %DIP G1 52.13% (MCF7/ADR); %DIP G2/M 9.91% (MCF7/ADR); %DIP S 37.96% (MCF7/ADR) | (a) 4d: %DIP G1 59.42% (MCF7/ADR); %DIP G2/M 13.75% (MCF7/ADR); %DIP S 26.83% (MCF7/ADR) | (a) 4e: %DIP G1 67.32% (MCF7/ADR); %DIP G2/M 8.6% (MCF7/ADR); %DIP S 24.08% (MCF7/ADR) | (a) 4g: %DIP G1 59.37% (MCF7/ADR); %DIP G2/M 3.67% (MCF7/ADR); %DIP S 36.96% (MCF7/ADR) | (a) 4i: %DIP G1 5.68% (MCF7/ADR); %DIP G2/M 57.61% (MCF7/ADR); %DIP S 36.71% (MCF7/ADR) DOUBTS OF THE COPYIST ABOUT THIS PICTURE: The print in the histogram insets of panel (a) is very small and blurred; 3, 5, 6, 8 and 9 cannot be told apart with certainty in any value, so all values below are best readings. / DOX., %DIP G1 63.03%: 3s may be 8s / DOX., %DIP G2/M 13.09%: 9 may be 8; 3 may be 5 / DOX., %DIP S 23.88%: 8s may be 3 or 6 / 4a, %DIP G1 41.63%: 6 or 8; 3 or 8 / 4a, %DIP G2/M 5.55%: 5s may be 6 or 3 / 4a, %DIP S 52.82%: 8 may be 3 or 6 / 4c, %DIP G1 52.13%: 3 or 8 / 4c, %DIP G2/M 9.91%: 9s may be 8 / 4c, %DIP S 37.96%: 9 or 8; 6 or 8 / 4d, %DIP G1 59.42%: 9 or 8 / 4d, %DIP G2/M 13.75%: 3 or 8; 5 or 6 / 4d, %DIP S 26.83%: 6, 8 and 3 uncertain / 4e, %DIP G1 67.32%: 6 or 8; 3 or 8 / 4e, %DIP G2/M 8.6%: 8 and 6 uncertain; a further digit may be missing / 4e, %DIP S 24.08%: 8 may be 3 or 6 / 4g, %DIP G1 59.37%: 9 or 8; 3 or 8 / 4g, %DIP G2/M 3.67%: 3 or 8; 6 or 8 / 4g, %DIP S 36.96%: 3, 6 and 9 uncertain / 4i, %DIP G1 5.68%: 5, 6 and 8 uncertain; the value seems to be printed against G1 although a leading digit could be hidden / 4i, %DIP G2/M 57.61%: 5 or 6; 6 or 8 / 4i, %DIP S 36.71%: 3 or 8; 6 or 8 / The untreated control (Cont.) also carries printed percentages (%DIP G1 55.38%, %DIP G2/M 15.01%, %DIP S 29.61%) but was left out because it is not a substance.

[2] = test system: SKOV-3 (ovarian cancer cell line); experiment: MTT colorimetric cytotoxicity assay, SKOV-3; format: cell-based, human; settings: 24 h incubation, mean ± standard error
Experimental: as §1, §3

[3] = test system: human diploid fibroblasts (WI-38); experiment: Cytotoxicity against normal cell line WI-38; format: cell-based; settings: 24 h incubation, mean ± standard error
Experimental: as §1, §2, §3

[4] = test system: PC-3 (human prostate adenocarcinoma, metastatic); experiment: MTT colorimetric cytotoxicity assay, PC-3; format: cell-based; settings: for IC50: Homo sapiens, MTT, 24 h incubation, mean ± standard error; for times more active than Doxorubicin / times more active than Vinblastine: PC-3 cells, ratio of IC50 values
Experimental: as §1, §2, §3

human fetal lung (HFL-1) = experiment: Cytotoxicity against normal cell line HFL-1; format: cell-based; settings: 24 h incubation, mean ± standard error
Experimental: as §1, §2, §3

[5] = Homo sapiens, NCI/ADR-RES, 24 h

Row | SMILES | IC50 [1, 5] [µM] | cell cycle arrest phase (MCF-7/ADR cells) | IC50 ([2]; Homo sapiens, SK-OV-3, 24 h) [µM] | IC50 [3] [µM] | IC50 [4] [µM] | IC50 (human fetal lung (HFL-1); Homo sapiens, HFL1, 24 h) [µM] | IC50 [1] [µM] | IC50 [2] [µM] | IC50 ([3]; Homo sapiens, WI-38, 24 h) [µM] | times more active than Doxorubicin [4] [times] | times more active than Vinblastine [4] [times] | IC50 (human fetal lung (HFL-1)) [µM]
1 | N#CC1=C(N)Oc2ccc3ccc(O)cc3c2C1c1ccc(Cl)cc1Cl (centres unmarked) [4d, 3-Amino-1-(2,4-Dichlorophenyl)-9-Hydroxy-1H-Benzo[f]chromene-2-Carbonitrile] | 10.4 ± 0.3 | G1 phase | 1.5 ± 0.1 | 39.1 ± 0.2 | 2 ± 0.7 | 20.1 ± 0.4 | – | – | – | – | – | –
2 | N#CC1=C(N)Oc2ccc3ccc(O)cc3c2C1c1cccc(Cl)c1Cl (centres unmarked) [4c, 3-Amino-1-(2,3-Dichlorophenyl)-9-Hydroxy-1H-Benzo[f]chromene-2-Carbonitrile] | 8.6 to 11.5 | S phase | – | – | 2.9 ± 0.7 | 22.1 ± 0.2 | 12.4 ± 0.1 | 4 ± 0.6 | 29.4 ± 0.1 | – | – | –
3 | N#CC1=C(N)Oc2ccc3ccc(O)cc3c2C1c1ccc(Cl)c(Cl)c1 (centres unmarked) [4g, 3-Amino-1-(3,4-Dichlorophenyl)-9-Hydroxy-1H-Benzo[f]chromene-2-Carbonitrile] | 11.5 ± 0.4 | G1/S phases | 0.9 ± 0.3 | – | 2.4 ± 0.1 | 27.4 ± 0.1 | – | – | 26.3 ± 0.2 | – | – | –
4 | N#CC1=C(N)Oc2ccc3ccc(O)cc3c2C1c1cc(Br)cc(Br)c1 (centres unmarked) [4i, 3-Amino-1-(3,5-Dibromophenyl)-9-Hydroxy-1H-Benzo[f]chromene-2-Carbonitrile] | 8.6 ± 0.7 | G1/S phases | 1.2 | – | 0.8 ± 0.1 | 19.1 to 30.1 | – | 1.1 ± 0.1 | 29.2 ± 1.2 | 1.6 | 9.4 | 38.1 ± 0.4
5 | N#CC1=C(N)Oc2ccc3ccc(O)cc3c2C1c1cc(Cl)ccc1Cl (centres unmarked) [4e, 3-Amino-1-(2,5-Dichlorophenyl)-9-Hydroxy-1H-Benzo[f]chromene-2-Carbonitrile] | 10 ± 0.3 | G1 phase | 1.1 ± 0.4 | – | 2.1 ± 0.5 | 24.1 ± 0.3 | – | – | 25.4 ± 1.1 | – | – | –
6 | N#CC1=C(N)Oc2ccc3ccc(O)cc3c2C1c1ccc(F)cc1F (centres unmarked) [4a, 3-Amino-1-(2,4-Difluorophenyl)-9-Hydroxy-1H-Benzo[f]chromene-2-Carbonitrile] | 10.8 ± 0.4 | S phase | 1.4 ± 0.2 | 34.3 ± 1.2 | 1.1 ± 0.4 | 26.5 ± 0.3 | – | – | 19.1 to 30.1 | 1.2 | 6.8 | –

Source: paper PMC9820082, “Synthesis of 9-Hydroxy-1H-Benzo[f]chromene Derivatives with Effective Cytotoxic Activity on MCF7/ADR, P-Glycoprotein Inhibitors, Cell Cycle Arrest and Apoptosis Effects” (International Journal of Molecular Sciences, 2022)
